Data reported in US9346770B2, “Compounds having activating effect on subtypes of peroxisome proliferator-activated receptors and its preparation method and uses” (ZHEJIANG HISUN PHARMACEUTICAL CO., LTD., priority 2010, dated 2016).

Key:
[1] = Acute toxicity (LD50, autopsy); assay type: in vivo; details: orally
Description: In the autopsy, no visible obvious injure was found in main visceral organs, and there was no statistical difference in the change in organ coefficient.

PPARα = PPARα (Homo sapiens (Human), UniProt Q07869); assay: Nuclear receptor reporter gene (luciferase) screening model, PPARα activation in HepG2 cells; assay type: cell-based; details: for Experiment results (relative activation fold) PPARα: HepG2, solvent control = 1; for EC50: HepG2 reporter gene, 6 concentrations
PPARα, sequence (Q07869 whole entry, species assumed): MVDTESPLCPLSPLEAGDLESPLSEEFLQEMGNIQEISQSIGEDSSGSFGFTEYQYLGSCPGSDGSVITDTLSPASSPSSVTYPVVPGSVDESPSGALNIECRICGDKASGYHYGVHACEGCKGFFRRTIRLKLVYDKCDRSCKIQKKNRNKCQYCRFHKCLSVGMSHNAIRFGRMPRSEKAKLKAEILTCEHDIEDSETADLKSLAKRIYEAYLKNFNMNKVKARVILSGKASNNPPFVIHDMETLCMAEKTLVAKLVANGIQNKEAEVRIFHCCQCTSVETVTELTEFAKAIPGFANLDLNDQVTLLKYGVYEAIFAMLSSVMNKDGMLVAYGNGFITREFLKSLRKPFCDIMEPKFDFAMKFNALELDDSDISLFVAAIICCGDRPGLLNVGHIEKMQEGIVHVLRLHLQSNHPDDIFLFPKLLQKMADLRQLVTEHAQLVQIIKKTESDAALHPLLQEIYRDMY
PPARα, sequence (P19793 whole entry partner, species assumed): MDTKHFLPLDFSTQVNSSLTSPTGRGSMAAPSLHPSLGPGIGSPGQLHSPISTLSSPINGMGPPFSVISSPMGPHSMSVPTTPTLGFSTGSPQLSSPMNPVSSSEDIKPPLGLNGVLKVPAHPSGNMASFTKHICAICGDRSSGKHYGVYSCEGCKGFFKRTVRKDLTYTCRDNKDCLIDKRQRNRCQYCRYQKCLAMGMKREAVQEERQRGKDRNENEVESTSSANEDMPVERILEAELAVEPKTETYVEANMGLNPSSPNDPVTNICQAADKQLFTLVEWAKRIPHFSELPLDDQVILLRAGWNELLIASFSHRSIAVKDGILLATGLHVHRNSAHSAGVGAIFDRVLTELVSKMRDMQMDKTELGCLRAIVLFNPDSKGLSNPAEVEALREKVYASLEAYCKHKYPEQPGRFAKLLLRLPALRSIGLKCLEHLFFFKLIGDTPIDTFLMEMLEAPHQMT
Description: (§1) Using a reporter gene method, a screening model for screening a nuclear receptor agonist in living cells is designed on the basis of the principal that a nuclear receptor can activate transcription of its downstream gene after being activated. A reporter gene plasmid is constructed, in which the DNA binding sequence for the nuclear receptor (NRE) is inserted at the upstream of a luciferase gene, such that the expression of the luciferase gene is regulated by the nuclear receptor. The reporter gene plasmid is transferred into a cell simultaneously with the nuclear receptor. The nuclear receptor will be activated when a nuclear receptor agonist presents in the cell culture medium. The receptor being activated can induce the expression of the luciferase gene, while the amount of generated luciferase can be determined with its luminescent substrate. In this way, the intensity of activation of the nuclear receptor by the compound can be determined by observing the luminescence intensity. For the calibration of the experimental error caused by factors such as transfection efficiency, amount of inoculated cells, toxicity of the compound, etc, a GFP plasmid is co-transfected simultaneously as the internal reference. In the analysis of the experimental results, the luminescent values tested for all wells are calibrated with GFP values. The experimental results are expressed as relative activation fold, with a value of 1 for the solvent control. The greater the fold is, the higher the activation capacity represents.
(§2) The detailed procedure is described as follows:
(§3) Hepatocarcinoma cell HepG2 (from ATCC, American Type Culture Collection) was cultured in a DMEM medium supplemented with 10% heat-inactivated fetal bovine serum (FBS, Invitogen, Grand Island, N.Y., USA) in a T-75 culture flask (Greiner, Germany) placed in a 5% CO2 incubator at 37° C. and 100% relative humidity.
(§4) On the next day, when the cells in the 96-well culture plate grew up to 50-80% confluency, cell transfection was performed. The cell co-transfection system comprised FuGene6 transfection agent (Roche Molecular Biochemicals, Indianapolis, Ind., U.S.A.) and 60 ng DNA (10 ng hRXR, 10 ng pCMV βGal, 10 ng nuclear receptor expression plasmid RXR/PPARα, δ, γ, 30 ng GFP fluorescence reporter gene plasmid, respectively).
(§5) The cell culture medium was discarded immediately after 24 hours of transfection and replaced by 200 μl fresh DMEM medium containing the test medicament (with 10% FBS treated by activated carbon). The final concentration gradients of the test medicament were 10 μM, 5 μM, 1 μM, 0.1 μM, 0.01 μM, 0.001 μM, and 0 μM. 0.05 μM 2-bromostearic acid (purchased from Sigma, USA) was used as the positive control. The final concentration of DMSO in each well was 0.1%.
(§6) After 24 h treatment with the medicament, the cells were lysed with a lysis solution (Cell Culture Lysis buffer, Promega) and centrifuged, and the supernatant was collected. The supernatant was reacted with a fluorescence assay kit (Promega) and counted by a fluorometer (Ascent Fluoroskan FL reader, Thermo Labsystems, Finland), and the relative intensity of luciferase was determined. For the assay of the β-galactosidase activity used in the experiment as the internal reference (the internal reference for calibrating the transfection efficiency), 50 μl of the supernatant was transferred into a fresh microplate, treated with a Promega kit, and the value was read with a microplate reader at a wavelength of 405 nm (Bio-tech Instruments Inc., Winooski, Vt., USA) (Sauerberg, P.; Olsen, G. S.; Jeppesen, L.; Mogensen, J. P. et al., J. Med. Chem., 2007, 50, 1495-1503).
(§7) In the present screening protocol, it was calculated according to the activation of the receptor by the sample at 6 different concentrations.
(§8) The concentration-activity profile of the effects of a compound was fitted by carrying out iterative computation according to the following formula, and corresponding EC50 was calculated: […]

PPARγ = PPARγ (Homo sapiens (Human), UniProt P37231); assay: Nuclear receptor reporter gene (luciferase) screening model, PPARγ activation in HepG2 cells; assay type: cell-based; details: for Experiment results (relative activation fold) PPARγ: HepG2, solvent control = 1; for EC50: HepG2 reporter gene, 6 concentrations
PPARγ, sequence (P37231 whole entry, species assumed): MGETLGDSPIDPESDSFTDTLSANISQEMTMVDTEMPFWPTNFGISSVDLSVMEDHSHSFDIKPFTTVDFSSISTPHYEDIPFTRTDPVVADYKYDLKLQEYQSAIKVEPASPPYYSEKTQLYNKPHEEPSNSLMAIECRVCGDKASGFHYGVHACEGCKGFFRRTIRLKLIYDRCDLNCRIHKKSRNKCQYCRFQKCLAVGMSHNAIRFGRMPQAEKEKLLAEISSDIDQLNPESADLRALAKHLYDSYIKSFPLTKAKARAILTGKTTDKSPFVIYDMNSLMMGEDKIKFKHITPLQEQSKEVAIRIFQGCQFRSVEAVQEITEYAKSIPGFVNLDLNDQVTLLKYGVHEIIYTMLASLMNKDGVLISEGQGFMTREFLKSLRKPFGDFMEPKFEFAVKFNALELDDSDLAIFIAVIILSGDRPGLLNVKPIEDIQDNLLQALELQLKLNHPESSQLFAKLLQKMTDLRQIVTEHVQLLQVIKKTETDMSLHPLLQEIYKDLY
PPARγ, sequence (P19793 whole entry partner, species assumed): as the sequence (P19793 whole entry partner, species assumed) above
Description: as §1, §2, §3, §4, §5, §6, §7, §8

PPARδ = PPARδ (Homo sapiens (Human), UniProt Q03181); assay: Nuclear receptor reporter gene (luciferase) screening model, PPARδ activation in HepG2 cells; assay type: cell-based; details: for Experiment results (relative activation fold) PPARδ: HepG2, solvent control = 1; for EC50: HepG2 reporter gene, 6 concentrations
PPARδ, sequence (Q03181 whole entry, species assumed): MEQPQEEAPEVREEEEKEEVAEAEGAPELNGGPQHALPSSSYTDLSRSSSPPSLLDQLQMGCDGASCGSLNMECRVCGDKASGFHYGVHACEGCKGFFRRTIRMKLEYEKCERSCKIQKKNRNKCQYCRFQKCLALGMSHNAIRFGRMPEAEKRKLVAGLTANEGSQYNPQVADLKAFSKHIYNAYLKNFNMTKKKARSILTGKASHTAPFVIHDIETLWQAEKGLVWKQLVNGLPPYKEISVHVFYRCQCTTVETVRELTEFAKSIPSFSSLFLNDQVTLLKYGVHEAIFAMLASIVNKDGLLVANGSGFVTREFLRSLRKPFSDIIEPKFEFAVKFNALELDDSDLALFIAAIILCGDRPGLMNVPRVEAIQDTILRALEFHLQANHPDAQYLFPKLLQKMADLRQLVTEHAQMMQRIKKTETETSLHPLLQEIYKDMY
PPARδ, sequence (P19793 whole entry partner, species assumed): as the sequence (P19793 whole entry partner, species assumed) above
Description: as §1, §2, §3, §4, §5, §6, §7, §8

Compound | Experiment results (relative activation fold) PPARα (PPARα; 0.001 uM) [fold] | Experiment results (relative activation fold) PPARα (PPARα; 0.01 uM) [fold] | Experiment results (relative activation fold) PPARα (PPARα; 0.1 uM) [fold] | Experiment results (relative activation fold) PPARα (PPARα; 1 uM) [fold] | Experiment results (relative activation fold) PPARα (PPARα; 5 uM) [fold] | Experiment results (relative activation fold) PPARα (PPARα; 10 uM) [fold] | EC50 (PPARα) [nM] | Experiment results (relative activation fold) PPARγ (PPARγ; 0.001 uM) [fold] | Experiment results (relative activation fold) PPARγ (PPARγ; 0.01 uM) [fold] | Experiment results (relative activation fold) PPARγ (PPARγ; 0.1 uM) [fold] | Experiment results (relative activation fold) PPARγ (PPARγ; 1 uM) [fold] | Experiment results (relative activation fold) PPARγ (PPARγ; 5 uM) [fold] | Experiment results (relative activation fold) PPARγ (PPARγ; 10 uM) [fold] | EC50 (PPARγ) [nM] | Experiment results (relative activation fold) PPARδ (PPARδ; 0.001 uM) [fold] | Experiment results (relative activation fold) PPARδ (PPARδ; 0.01 uM) [fold] | Experiment results (relative activation fold) PPARδ (PPARδ; 0.1 uM) [fold] | Experiment results (relative activation fold) PPARδ (PPARδ; 1 uM) [fold] | Experiment results (relative activation fold) PPARδ (PPARδ; 5 uM) [fold] | Experiment results (relative activation fold) PPARδ (PPARδ; 10 uM) [fold] | other results
CN(CCOc1ccc(CC2SC(=O)NC2=O)cc1)c1ccccn1 (stereo not shown) [rosiglitazone] | – | – | – | – | – | – | – | – | – | – | – | – | – | – | – | – | – | – | – | – | LD50 [1]: 3000 to 4000 mg/kg
CCc1cc(OCCc2nc(-c3ccc(F)cc3)oc2C)ccc1CCC(=O)O [Compound 1, 3-(2-ethyl-4-{2-[2-(4-fluorophenyl)-5-methyloxazol-4-yl]ethoxyl}phenyl)propionic acid] | 1.00 | 1.08 | 1.12 | 1.36 | 1.35 | 1.72 | 29 | 1.09 | 1.21 | 1.26 | 1.45 | 1.62 | 2.01 | 13 | 1.07 | 1.12 | 1.19 | 1.40 | 1.33 | 1.80 | activation effect on PPARα receptor (in words) (PPARα; screening results): better activation effects; activation effect on PPARγ receptor (in words) (PPARγ; screening results): better activation effects; EC50 (PPARδ): 29 nM; activation effect on PPARδ receptor (in words) (PPARδ; screening results): better activation effects
CCc1cc(OCCc2nc(-c3ccc(C#N)cc3)oc2C)ccc1CCC(=O)O [Compound 8] | 1.23 | 1.35 | 1.48 | 1.41 | 1.71 | 1.93 | 5250 | 1.38 | 2.29 | 3.72 | 4.75 | 4.29 | 4.24 | 22 | 1.65 | 2.69 | 3.58 | 3.94 | 4.23 | 4.40 | EC50 (PPARδ): 6 nM
CCc1cc(OCCc2nc(-c3ccc(C(N)=O)cc3)oc2C)ccc1CCC(=O)O [Compound 9] | 1.25 | 1.17 | 1.32 | 1.56 | 1.63 | 1.81 | 1150 | 1.09 | 1.51 | 3.20 | 4.34 | 5.04 | 4.26 | 47 | 1.18 | 1.40 | 2.25 | 3.38 | 4.08 | 3.92 | EC50 (PPARδ): 331 nM
